Measured values: patent US8158621B2, “Methods of treating or preventing autoimmune diseases with 2,4-pyrimidinediamine compounds” (Rigel Pharmaceuticals, Inc., priority 2002, dated 2012)

tested on: Human Jurkat T-cells (clone N); test: Jurkat T-cell activation (anti-TCR, CD69 upregulation); assay type: cell-based; conditions: not given
Procedure, shortened: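 Jurkat cells in RPMI + 5% FBS preincubated with compound 1 h at 37 °C, then stimulated with anti-TCR C305 at 500 ng/ml for 20 h. CD69 surface expression stained with anti-CD69-APC and read by flow cytometry; IC50 versus solvent-only control.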

| Structure (SMILES) | IC50 [µM] |
| --- | --- |
| CCOC(=O)c1cnc(N[C@H](C(=O)OCC)C(C)C)nc1N[C@H](C(=O)OCC)C(C)C [Compound R926527] | 21.2 |
| N#CCOc1ccc(Nc2ncc(F)c(Nc3ccc4c(c3)OCCO4)n2)cc1 [Compound R926480] | > 10 |
| O=C(O)COc1cccc(Nc2ncc(F)c(Nc3ccc4c(c3)OCCO4)n2)c1 [Compound R926483] | > 10 |
| CNC(=O)COc1cccc(Nc2ncc(F)c(Nc3ccc(C)c(Cl)c3)n2)c1 [Compound R926839] | 2.48 |
| Fc1cnc(Nc2ccc3c(c2)CCO3)nc1Nc1ccc2c(c1)CCO2 [Compound R909237] | > 10 |
| COc1cccc(Nc2nc(Nc3cccc(OCC(=O)NCC(O)CO)c3)ncc2F)c1 (stereo not drawn) [Compound R926739] | 2.09 |
| Fc1cnc(Nc2cccc(OCCN3CCOCC3)c2)nc1Nc1ccc2c(c1)OCCO2 [Compound R926486] | 1.75 |
| Cc1cnc(Nc2ccc(OCc3nnnn3C)cc2)nc1Nc1cccc(O)c1 [Compound R920894] | 2.02 |
| CNC(=O)COc1cccc(Nc2ncc(F)c(Nc3ccc(OC(C)C)cc3)n2)c1 [Compound R926730] | 1.84 |
| CC(C)Oc1ccc(Nc2nc(Nc3ccc4oc(C(=O)N5CCCC5)cc4c3)ncc2F)cc1 [Compound R926703] | 7.87 |
| Oc1cccc(Nc2nc(Nc3ccc(OCCN4CCOCC4)cc3)ncc2F)c1 [Compound R926699] | 1.86 |
| CCOC(=O)COc1cccc(Nc2ncc(F)c(Nc3ccc4c(c3)NCCO4)n2)c1 [Compound R909242] | 3.8 |
| CNC(=O)COc1cc(Nc2ncc(F)c(Nc3ccc(C)c(O)c3)n2)ccc1C [Compound R926759] | 1.71 |
| CCOC(=O)COc1cccc(Nc2nc(Nc3cccc(O)c3)ncc2F)c1 [Compound R926775] | > 10 |
| NC(=O)COc1cccc(Nc2ncc(F)c(Nc3ccc4c(c3)OCCO4)n2)c1 [Compound R926747] | 3.28 |
| CCCCNC(=O)COc1ccc(Nc2ncc(C#N)c(Nc3ccc(OCC(=O)NCCCC)cc3)n2)cc1 [Compound R925860] | 41.9 |

Results, then the compound that gave them:

| IC50 [µM] | Structure (SMILES) |
| --- | --- |
| 0.668 | CC(C)Oc1ccc(Nc2nc(Nc3ccc4c(cnn4CCO)c3)ncc2F)cc1 [Compound R935255] |
| 13.3 | CNC(=O)COc1cccc(Nc2ncc(F)c(Nc3ccc4c(c3)C(=O)CCC4)n2)c1 [Compound R926947] |
| > 10 | CCOC(=O)C(C)(Oc1cccc(Nc2nc(Nc3ccc(OC(C)C)cc3)ncc2F)c1)C(=O)OCC [Compound R935187] |
| > 10 | CNC(=O)Cn1ncc2cc(Nc3ncc(F)c(Nc4ccc5c(cnn5CC(=O)NC)c4)n3)ccc21 [Compound R935217] |
| > 10 | CCOC(=O)C1CCN(C(=O)c2cccc(Nc3nc(Nc4cccc(OCC(=O)NC)c4)ncc3F)c2)CC1 [Compound R926941] |
| > 10 | N#CCOc1ccc(Nc2nc(Nc3ccc(OCC(=O)O)cc3)ncc2F)cc1 [Compound R945097] |
| > 10 | CNC(=O)COc1cccc(Nc2ncc(F)c(Nc3ccc(C)c(OC)c3)n2)c1 [Compound R926902] |
| > 10 | CC(=O)Nc1cccc(N(C(C)=O)c2ncc(F)c(N(C(C)=O)c3cccc(N(C(C)=O)C(C)=O)c3)n2)c1 [Compound R950245] |
| 1.65 | CNC(=O)COc1cccc(Nc2ncc(F)c(Nc3cccc(C(=NO)c4ccccc4)c3)n2)c1 [Compound R950374] |
| 1.11 | Cc1cc(Nc2nc(Nc3cccc(OCCN4CCNCC4)c3)ncc2F)cc(Cl)c1O [Compound R945150] |
| 23.9 | COC(=O)COc1ccc(Nc2ncc(F)c(Nc3ccc4c(c3)OCCCO4)n2)cc1 [Compound R935182] |
| 1.41 | Cc1cc(Nc2ncc(F)c(Nc3ccc4cn[nH]c4c3)n2)cc(Cl)c1O [Compound R935264] |
| > 10 | CC(=O)N(C(C)=O)c1cccc(N(C(C)=O)c2ncc(F)c(N(C(C)=O)c3cccc(N(C(C)=O)C(C)=O)c3)n2)c1 [Compound R950247] |
| 5.01 | CCOC(=O)CNc1cccc(Nc2ncc(F)c(Nc3cccc(O)c3)n2)c1 [Compound R950215] |
| 6.04 | NC(=O)COc1ccc(Nc2nc(Nc3cccc(O)c3)ncc2F)cc1 [Compound R945063] |
| 2.83 | O=C(CNc1cccc(Nc2ncc(F)c(Nc3ccc4c(c3)OCCO4)n2)c1)N1CCOCC1 [Compound R950193] |
| 4.75 | Cc1cc(Nc2nc(Nc3cccc(OCCN4CCOCC4)c3)ncc2F)cc(C)c1O [Compound R940256] |
| 2.19 | CNC(=O)COc1cccc(Nc2ncc(F)c(Nc3cccc(C(=O)c4ccccc4)c3)n2)c1 [Compound R950372] |

| IC50 [µM] | Structure (SMILES) |
| --- | --- |
| 0.708 | Cn1ncc2cc(Nc3ncc(F)c(Nc4ccc5c(c4)NC(=O)C(C)(C)O5)n3)ccc21 [Compound R940338] |
| 5.36 | COc1ccc([C@@H](C)Nc2ncc(Br)c(N[C@H](C)c3ccc(OC)cc3)n2)cc1 [Compound R935016] |
| > 10 | CCOc1ccc(Nc2ncc([N+](=O)[O-])c(Nc3ccc(OCC)cc3)n2)cc1 [Compound R940090] |
| 13.9 | Nc1ccc(Nc2ncc(F)c(Nc3ccc(N)cc3)n2)cc1 [Compound R950122] |
| 6.24 | CNC(=O)COc1cccc(Nc2ncc(F)c(Nc3ccc(C(F)(F)F)cc3)n2)c1 [Compound R926880] |
| 16.2 | COC(=O)COc1cccc(Nc2ncc(F)c(Nc3cc(C)c(O)c(Cl)c3)n2)c1 [Compound R945148] |
| 1.34 | OCCCn1ncc2ccc(Nc3ncc(F)c(Nc4cccc(O)c4)n3)cc21 [Compound R935293] |
| 1.41 | CC(C)Oc1ccc(Nc2nc(Nc3ccc4c(cnn4CCCO)c3)ncc2F)cc1 [Compound R935307] |
| 2.26 | O=C(CNc1cccc(Nc2ncc(F)c(Nc3ccc4c(c3)OCCO4)n2)c1)NCCN1CCOCC1 [Compound R950200] |
| 0.8 | OCCCn1ncc2cc(Nc3ncc(F)c(Nc4ccc5c(c4)OCCO5)n3)ccc21 [Compound R935302] |
| > 10 | CC(C)Oc1ccc(Nc2ncc(F)c(Nc3ccc4c(cnn4C)c3)n2)cc1 [Compound R935203] |
| > 10 | CNC(=O)Cn1ncc2ccc(Nc3nc(Nc4ccc(OC(C)C)cc4)ncc3F)cc21 [Compound R935224] |
| 10.7 | NCCNC(=O)c1cc2cc(Nc3ncc(F)c(Nc4ccc5oc(C(=O)NCCN)cc5c4)n3)ccc2o1 [Compound R950168] |
| 0.805 | ON=C1CCOc2ccc(Nc3ncc(F)c(Nc4ccc5c(c4)C(=NO)CCO5)n3)cc21 [Compound R950381] |
| 2.88 | COC(=O)c1ccc(Cn2cc3ccc(Nc4ncc(F)c(Nc5ccc6c(c5)OCCO6)n4)cc3n2)c(OC)c1 [Compound R935336] |
| > 10 | Cc1ccc(-c2ccccc2)cc1Nc1ncc(C)c(Nc2cc(-c3ccccc3)ccc2C)n1 [Compound R935001] |
| 17.4 | CNC(=O)COc1cccc(Nc2ncc(F)c(Nc3cccc([N+](=O)[O-])c3)n2)c1 [Compound R950261] |

same assay, conditions: Homo sapiens

| Structure (SMILES) | IC50 [µM] |
| --- | --- |
| Cc1ccc(Nc2ccnc(Nc3ccc(C)c([N+](=O)[O-])c3)n2)cc1[N+](=O)[O-] [Compound R950153] | > 10 |

same assay, conditions: Homo sapiens, Jurkat

| Structure (SMILES) | IC50 [µM] |
| --- | --- |
| Fc1cnc(Nc2ccc3[nH]ccc3c2)nc1Nc1ccc2c(c1)OCCO2 [Compound R926748] | 2.77 |
| Oc1ccc(Nc2ncc(F)c(Nc3ccc(O)cc3F)n2)c(F)c1 [Compound R926683] | 7.63 |
| COC(=O)c1cc2cc(Nc3nc(Nc4ccc5c(c4)OCCO5)ncc3F)ccc2o1 [Compound R926485] | > 10 |
| Oc1ccc(CCNc2ncc(F)c(NCCc3ccc(O)cc3)n2)cc1 [Compound R925791] | > 10 |
| Oc1cccc(Nc2cc(Nc3cccc(O)c3)nc(Nc3cccc(O)c3)n2)c1 [Compound R926409] | 3.54 |
| CNC(=O)c1cc2cc(Nc3nc(Nc4ccc5c(c4)OCCO5)ncc3F)ccc2o1 [Compound R926491] | 2.73 |
| COc1ccc(Nc2ncc(F)c(Nc3ccc(OC)cc3)n2)cc1 [Compound R926017] | 20.8 |
| Oc1ccc(CCNc2ncc(Br)c(NCCc3ccc(O)cc3)n2)cc1 [Compound R925792] | 8.65 |
| CCOC(=O)c1cc2cccc(Nc3ncc(F)c(Nc4cc(OC)cc(OC)c4)n3)c2[nH]1 [Compound R926803] | > 10 |
| Cc1noc(C)c1Nc1ncc(F)c(Nc2ccc3c(c2)OCCO3)n1 [Compound R926744] | > 10 |
| Brc1cnc(Nc2ccccc2-c2ccccc2)nc1Nc1ccccc1-c1ccccc1 [Compound R925798] | > 10 |
| Oc1ccc(Nc2ncc(F)c(Nc3ccc(O)c(F)c3)n2)cc1F [Compound R926681] | 2 |
| OCCNc1ncc(F)c(Nc2ccc3c(c2)OCCO3)n1 [Compound R925746] | > 10 |
| Cc1ccc(Nc2ncc(F)c(Nc3ccc(C)cc3)n2)cc1 [Compound R926225] | > 10 |
| Oc1cccc(Nc2ncc(F)c(NCCSCc3c(F)cccc3Cl)n2)c1 [Compound R926724] | > 10 |

More lines, now with the values ahead:

| IC50 [µM] | Structure (SMILES) |
| --- | --- |
| 1.74 | CC(C)Oc1ccc(Nc2nc(Nc3ccc(OCC(O)CO)cc3)ncc2F)cc1 (stereo not drawn) [Compound R935175] |
| 9.64 | N#Cc1cccc(Nc2nc(Nc3cccc(O)c3)ncc2F)c1 [Compound R945109] |
| > 10 | Oc1cccc(Nc2nc(NCCc3c[nH]c4ccccc34)ncc2F)c1 [Compound R945117] |
| > 10 | O=C(O)c1cccc(Nc2ncc(F)c(Nc3cccc(C(=O)O)c3)n2)c1 [Compound R945036] |
| > 10 | Fc1cnc(Nc2ccc(N3CCN(Cc4ccccc4)CC3)cc2)nc1Nc1ccc2c(c1)OCCO2 [Compound R945163] |
| > 10 | Cc1cc(O)cc(N(c2ccc3c(c2)OCCO3)c2nc(N)ncc2F)c1 [Compound R926893] |
| > 10 | CC(C)c1ccc(O)cc1Nc1ncc(F)c(Nc2cc(O)ccc2C(C)C)n1 [Compound R935077] |
| > 10 | CC(Nc1nc(Nc2cccc(O)c2)ncc1F)c1ccc(F)cc1 (racemic) [Compound R935021] |
| 6.46 | COC(=O)c1cc(N)cc(Nc2ncc(F)c(Nc3cc(N)cc(C(=O)OC)c3)n2)c1 [Compound R950134] |
| > 10 | Oc1cccc(Nc2nc(NCc3cccnc3)ncc2F)c1 [Compound R945165] |
| 4.57 | Nc1cc(Nc2ccnc(Nc3cc(N)cc(C(F)(F)F)c3)n2)cc(C(F)(F)F)c1 [Compound R950143] |
